Values belong to the compound of their own block, whether it stands above or below them.
Tests used:
Type in all cases: in vivo
[1] = tested on: Triticum aestivum (TRZAS); assay: Post-emergence crop plant compatibility, greenhouse pot test
Procedure: (§1) Seeds of monocotyledonous and dicotyledonous weeds and crop plants were placed in sandy loam in plastic or wood-fibre pots, covered with soil and cultivated in a greenhouse under controlled growth conditions. 2 to 3 weeks after sowing, the test plants were treated at the one-leaf stage. The compounds of the invention, formulated in the form of wettable powders (WP) or as emulsion concentrates (EC), were then sprayed onto the green parts of the plants as aqueous suspension or emulsion with addition of 0.5% additive at a water application rate of 600 l/ha (converted). After the test plants had been kept in the greenhouse under optimum growth conditions for about 3 weeks, the activity of the preparations was rated visually in comparison to untreated controls. For example, 100% activity=the plants have died, 0% activity=like control plants.
(§2) The observed effects on selected crop plants are reported here in comparison to the untreated controls (values in %).

Veronica persica (VERPE) = assay: Post-emergence herbicidal action, greenhouse pot test
Procedure: as §1

Lolium rigidum (LOLRI) = assay: as above
Procedure: as §1

[2] = tested on: Amaranthus retroflexus (AMARE); assay: as above
Procedure: as §1

[3] = tested on: Abutilon theophrasti (ABUTH); assay: as above
Procedure: as §1

Viola tricolor (VIOTR) = assay: as above
Procedure: as §1

[4] = tested on: Digitaria sanguinalis (DIGSA); assay: as above
Procedure: as §1

[5] = tested on: Polygonum convolvulus (POLCO); assay: as above
Procedure: as §1

[6] = tested on: Pharbitis purpurea (PHBPU); assay: as above
Procedure: as §1

[7] = tested on: Echinochloa crus-galli (ECHCG); assay: as above
Procedure: as §1

[8] = tested on: Alopecurus myosuroides (ALOMY); assay: as above
Procedure: as §1

[9] = tested on: Tripleurospermum inodorum (MATIN); assay: as above
Procedure: as §1

Bassia scoparia (KCHSC) = assay: as above
Procedure: as §1

Setaria viridis (SETVI) = assay: as above
Procedure: as §1

Zea mays (ZEAMX) = assay: Post-emergence crop plant compatibility, greenhouse pot test; conditions: Zea mays, in vivo
Procedure: as §1, §2

Oryza sativa (ORYSA) = assay: as above; conditions: Oryza sativa, in vivo
Procedure: as §1, §2

- Post-emergence effect at 1.25 g/ha against TRZAS in % ([1]; crop plant, post-emergence, 1.25 g/ha): 10%
SMILES: Cn1c(C(F)(F)F)cc(=O)n(-c2cc(Oc3ccccc3OCC(=O)OCC3CC34CCC4)c(Cl)cc2F)c1=O (stereo not drawn) [I.7-19]
- Post-emergence effect at 1.25 g/ha against VERPE in % (Veronica persica (VERPE); 1.25 g/ha): 90%
- Post-emergence effect at 5 g/ha against VERPE in % (Veronica persica (VERPE); 5 g/ha): 100%
- Post-emergence effect at 20 g/ha against VERPE in % (Veronica persica (VERPE); 20 g/ha): 100%
- Post-emergence effect at 20 g/ha against LOLRI in % (Lolium rigidum (LOLRI)): 80%
- Post-emergence effect at 1.25 g/ha against AMARE in % ([2]; 1.25 g/ha): 100%
- Post-emergence effect at 5 g/ha against AMARE in % ([2]; 5 g/ha): 100%
- Post-emergence effect at 20 g/ha against AMARE in % ([2]; 20 g/ha): 100%
- Post-emergence effect at 1.25 g/ha against ABUTH in % [3]: 100%
- Post-emergence effect at 5 g/ha against ABUTH in % ([3]; 5 g/ha): 100%
- Post-emergence effect at 20 g/ha against ABUTH in % ([3]; 20 g/ha): 100%
- Post-emergence effect at 1.25 g/ha against VIOTR in % (Viola tricolor (VIOTR)): 100%
- Post-emergence effect at 5 g/ha against VIOTR in % (Viola tricolor (VIOTR)): 100%
- Post-emergence effect at 20 g/ha against VIOTR in % (Viola tricolor (VIOTR); 20 g/ha): 100%
- Post-emergence effect at 5 g/ha against DIGSA in % ([4]; 5 g/ha): 100%
- Post-emergence effect at 20 g/ha against DIGSA in % ([4]; 20 g/ha): 100%
- Post-emergence effect at 5 g/ha against POLCO in % ([5]; 5 g/ha): 100%
- Post-emergence effect at 20 g/ha against POLCO in % ([5]; 20 g/ha): 100%
- Post-emergence effect at 1.25 g/ha against PHBPU in % ([6]; 1.25 g/ha): 80%
- Post-emergence effect at 5 g/ha against PHBPU in % ([6]; 5 g/ha): 100%
- Post-emergence effect at 20 g/ha against PHBPU in % ([6]; 20 g/ha): 100%
- Post-emergence effect at 5 g/ha against ECHCG in % [7]: 100%
- Post-emergence effect at 20 g/ha against ECHCG in % ([7]; 20 g/ha): 100%
- Post-emergence effect at 20 g/ha against ALOMY in % ([8]; 20 g/ha): 100%
- Post-emergence effect at 20 g/ha against MATIN in % ([9]; 20 g/ha): 100%
- Post-emergence effect at 1.25 g/ha against KCHSC in % (Bassia scoparia (KCHSC); 1.25 g/ha): 80%
- Post-emergence effect at 5 g/ha against KCHSC in % (Bassia scoparia (KCHSC); 5 g/ha): 80%
- Post-emergence effect at 20 g/ha against KCHSC in % (Bassia scoparia (KCHSC); 20 g/ha): 100%
- Post-emergence effect at 1.25 g/ha against SETVI in % (Setaria viridis (SETVI)): 100%
- Post-emergence effect at 5 g/ha against SETVI in % (Setaria viridis (SETVI); 5 g/ha): 100%
- Post-emergence effect at 20 g/ha against SETVI in % (Setaria viridis (SETVI); 20 g/ha): 100%

- Post-emergence effect at 1.25 g/ha against ZEAMX in % (Zea mays (ZEAMX)): 10%
- Post-emergence effect at 5 g/ha against ZEAMX in % (Zea mays (ZEAMX)): 20%
- Post-emergence effect at 1.25 g/ha against ORYSA in % (Oryza sativa (ORYSA)): 0%
- Post-emergence effect at 5 g/ha against ORYSA in % (Oryza sativa (ORYSA)): 0%
- Post-emergence effect at 20 g/ha against ORYSA in % (Oryza sativa (ORYSA)): 0%
- Post-emergence effect at 1.25 g/ha against TRZAS in % ([1]; Triticum aestivum, in vivo): 0%
- Post-emergence effect at 20 g/ha against TRZAS in % ([1]; Triticum aestivum, in vivo): 20%
SMILES: Cn1c(C(F)(F)F)cc(=O)n(-c2cc(Oc3ccccc3OCC(=O)OCC3CC3)c(C#N)cc2F)c1=O [I.9-1, Cyclopropylmethyl (2-{2-cyano-4-fluoro-5-[3-methyl-2,6-dioxo-4-(trifluoromethyl)-3,6-dihydropyrimidin-1(2H)-yl]phenoxy}phenoxy)acetate]
- pest or weed control at 5 g/ha (Veronica persica (VERPE); Veronica persica, 504 h, 5 g/ha, read-out: Post-emergence effect at 5 g/ha against VERPE in %): 100%
- pest or weed control at 20 g/ha (Veronica persica (VERPE); Veronica persica, 504 h, 20 g/ha, read-out: Post-emergence effect at 20 g/ha against VERPE in %): 100%
- pest or weed control at 1.25 g/ha ([2]; Amaranthus retroflexus, 504 h, 1.25 g/ha, read-out: Post-emergence effect at 1.25 g/ha against AMARE in %): 100%
- pest or weed control at 5 g/ha ([2]; Amaranthus retroflexus, 504 h, 5 g/ha, read-out: Post-emergence effect at 5 g/ha against AMARE in %): 100%
- pest or weed control at 20 g/ha ([2]; Amaranthus retroflexus, 504 h, 20 g/ha, read-out: Post-emergence effect at 20 g/ha against AMARE in %): 100%
- Post-emergence effect at 1.25 g/ha against ABUTH in % [3]: 100%
- pest or weed control at 5 g/ha ([3]; Abutilon theophrasti, 504 h, 5 g/ha, read-out: Post-emergence effect at 5 g/ha against ABUTH in %): 100%
- pest or weed control at 20 g/ha ([3]; Abutilon theophrasti, 504 h, 20 g/ha, read-out: Post-emergence effect at 20 g/ha against ABUTH in %): 100%
- Post-emergence effect at 1.25 g/ha against VIOTR in % (Viola tricolor (VIOTR)): 100%
- Post-emergence effect at 5 g/ha against VIOTR in % (Viola tricolor (VIOTR)): 100%
- pest or weed control at 20 g/ha (Viola tricolor (VIOTR); Viola tricolor, 504 h, 20 g/ha, read-out: Post-emergence effect at 20 g/ha against VIOTR in %): 100%
- pest or weed control at 5 g/ha ([5]; Fallopia convolvulus, 504 h, 5 g/ha, read-out: Post-emergence effect at 5 g/ha against POLCO in %): 80%
- pest or weed control at 20 g/ha ([5]; Fallopia convolvulus, 504 h, 20 g/ha, read-out: Post-emergence effect at 20 g/ha against POLCO in %): 100%
- pest or weed control at 5 g/ha ([6]; Ipomoea purpurea, 504 h, 5 g/ha, read-out: Post-emergence effect at 5 g/ha against PHBPU in %): 100%
- pest or weed control at 20 g/ha ([6]; Ipomoea purpurea, 504 h, 20 g/ha, read-out: Post-emergence effect at 20 g/ha against PHBPU in %): 100%
- Post-emergence effect at 1.25 g/ha against ECHCG in % ([7]; 1.25 g/ha): 80%
- Post-emergence effect at 5 g/ha against ECHCG in % [7]: 100%
- pest or weed control at 20 g/ha ([7]; Echinochloa crus-galli, 504 h, 20 g/ha, read-out: Post-emergence effect at 20 g/ha against ECHCG in %): 100%
- Post-emergence effect at 5 g/ha against ALOMY in % ([8]; 5 g/ha): 100%
- pest or weed control at 20 g/ha ([8]; Alopecurus myosuroides, 504 h, 20 g/ha, read-out: Post-emergence effect at 20 g/ha against ALOMY in %): 100%
- Post-emergence effect at 5 g/ha against MATIN in % ([9]; 5 g/ha): 80%
- pest or weed control at 20 g/ha ([9]; Tripleurospermum inodorum, 504 h, 20 g/ha, read-out: Post-emergence effect at 20 g/ha against MATIN in %): 80%
- Post-emergence effect at 1.25 g/ha against SETVI in % (Setaria viridis (SETVI)): 80%
- pest or weed control at 5 g/ha (Setaria viridis (SETVI); Setaria viridis, 504 h, 5 g/ha, read-out: Post-emergence effect at 5 g/ha against SETVI in %): 100%
- pest or weed control at 20 g/ha (Setaria viridis (SETVI); Setaria viridis, 504 h, 20 g/ha, read-out: Post-emergence effect at 20 g/ha against SETVI in %): 100%
